From the supplement of paper PMC10307832

Assays:
Test in all cases: relative viability (nuclei count vs DMSO), 5 days (fraction); higher = more cells survive
NVP-TAE684 + Linsitinib = compound: COc1cc(N2CCC(N3CCN(C)CC3)CC2)ccc1Nc1ncc(Cl)c(Nc2ccccc2S(=O)(=O)C(C)C)n1 [NVP-TAE684] + C[C@]1(O)C[C@@H](c2nc(-c3ccc4ccc(-c5ccccc5)nc4c3)c3c(N)nccn32)C1 [Linsitinib] (partner 1 µM)
Method in brief: (§1)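 Relative viability is defined as nuclei in treated wells over nuclei in vehicle wells. Duplicate plates were run and medians reported. Lung cancer cell lines in 1536-well plates were dosed by pin tool one day after seeding, with one drug or with a fixed anchor-drug dose plus five library-drug doses (not always all listed) in √10 steps, and nuclei were counted after 5 days.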

[1] = compound: C1=CC=C2C(=C1)N=C(S2)C(C#N)C3=NC(=NC=C3)NCCC4=CN=CC=C4 + Cc1nc(NC(=O)N2CCC[C@H]2C(N)=O)sc1-c1ccnc(C(C)(C)C(F)(F)F)c1 [Alpelisib] (partner 2 µM)
Method in brief: as §1

NVP-TAE684 + OSI-027 = compound: COc1cc(N2CCC(N3CCN(C)CC3)CC2)ccc1Nc1ncc(Cl)c(Nc2ccccc2S(=O)(=O)C(C)C)n1 [NVP-TAE684] + COc1cccc2cc(-c3nc([C@H]4CC[C@H](C(=O)O)CC4)n4ncnc(N)c34)[nH]c12 [OSI-027] (partner 0.5 µM)
Method in brief: as §1

NVP-TAE684 + AZD7762 = compound: COc1cc(N2CCC(N3CCN(C)CC3)CC2)ccc1Nc1ncc(Cl)c(Nc2ccccc2S(=O)(=O)C(C)C)n1 [NVP-TAE684] + NC(=O)Nc1cc(-c2cccc(F)c2)sc1C(=O)N[C@H]1CCCNC1 [AZD7762] (partner 0.2 µM)
Method in brief: as §1

CUDC-101 + Vorinostat = compound: C#Cc1cccc(Nc2ncnc3cc(OC)c(OCCCCCCC(=O)NO)cc23)c1 [CUDC-101] + O=C(CCCCCCC(=O)Nc1ccccc1)NO [Vorinostat] (partner 1 µM)
Method in brief: as §1

Cell Line	relative viability (NVP-TAE684 + Linsitinib; first compound 0.2 µM)	relative viability (NVP-TAE684 + Linsitinib; first compound 0.6325 µM)	relative viability (NVP-TAE684 + Linsitinib; first compound 2 µM)	relative viability ([1]; first compound 0.005 µM)	relative viability ([1]; first compound 0.01581 µM)	relative viability ([1]; first compound 0.05 µM)	relative viability ([1]; first compound 0.1581 µM)	relative viability ([1]; first compound 0.5 µM)	relative viability (NVP-TAE684 + OSI-027; first compound 0.2 µM)	relative viability (NVP-TAE684 + OSI-027; first compound 0.6325 µM)	relative viability (NVP-TAE684 + OSI-027; first compound 2 µM)	relative viability (NVP-TAE684 + AZD7762; first compound 0.2 µM)	relative viability (NVP-TAE684 + AZD7762; first compound 0.6325 µM)	relative viability (NVP-TAE684 + AZD7762; first compound 2 µM)	relative viability (CUDC-101 + Vorinostat; first compound 0.01 µM)	relative viability (CUDC-101 + Vorinostat; first compound 0.03162 µM)	relative viability (CUDC-101 + Vorinostat; first compound 0.1 µM)	relative viability (CUDC-101 + Vorinostat; first compound 0.3162 µM)	relative viability (CUDC-101 + Vorinostat; first compound 1 µM)
NCI-H1666	0.828	0.605	0.591	0.915	0.971	0.876	1.11	0.892	0.901	0.767	0.641	0.898	0.889	0.652	1.1	1.01	0.951	1.06	1.06
NCI-H1993		0.66	0.658	0.671	0.692	0.645	0.652	0.747	0.494	0.466	0.593	0.772	0.826	0.584	0.748	1.01	0.688	0.666	0.426
NCI-H1437	1.01	1.02	0.545	0.797	1.11	0.962	1.09	0.695	0.79		0.203	1.21	1.09	1.07	0.864	0.857	0.814	0.808	0.495
ABC-1	0.825	0.742	0.358	1.05	1.05	1.2	0.961	1.07	0.393	0.419	0.179	0.917	0.524	0.472	1.05	0.988	1.17	0.815	0.318
NCI-H727	0.331	0.284	0.216	0.508	0.508	0.566	0.565	0.409	0.68	0.411	0.372	0.588	0.58	0.344	1.28	1.15	0.958	1.04	0.642
PC-3 [JPC-3]	0.96	0.934	0.843	0.935	1.02	0.96	1.08	0.954	0.686	0.759		0.821	0.673	0.54	0.753	0.691	0.387	0.383	0.335
NCI-H1355	0.724	0.826	0.535	0.852	0.901	0.823	0.883	0.633	0.423	0.325	0.273	0.862	0.691	0.479	0.693	0.663	0.636	0.62	0.497
HCC-827	0.978	1.01	0.973	0.962	1.01	0.943	1.15	1.02	0.681	0.743	0.848	0.193	0.177	0.18	0.929	0.835	0.168	0.156	0.14
NCI-H1944	1.16	1.17	1.3	0.799	0.86	0.771	0.835	0.803	0.428	0.36	0.278	0.507	0.441	0.348	0.522	0.58	0.529	0.533	0.369
NCI-H2405		0.849	0.573	0.75	0.784	0.734	0.731	0.839	0.564	0.613	0.261	0.767	0.598	0.31	1.1	1.04	0.968	0.953	0.568
NCI-H650	0.982	0.638	0.652	0.859	1.22	1.04	1.18	1.2	0.441	0.458	0.332	1.03	0.848	0.853	0.547	0.517	0.414	0.456	0.51
HCC-366	0.605	0.621	0.455	0.428	0.475	0.314	0.475	0.389	1.15	0.772	0.401	0.269	0.194	0.218	0.393	0.312	0.29	0.313	0.254
NCI-H838	1.22	0.955	0.372	0.841	0.965	0.959	0.961	0.852	0.389	0.324	0.175		0.857	0.853	0.719	0.741	0.708	0.555	0.372
NCI-H358	0.73	0.488	0.274	0.603	0.795	0.802	0.981	0.744	0.718	0.616	0.15	0.55	0.298	0.225	0.697	0.733	0.695	0.447	0.128
HOP-62	0.97	0.963	0.755	0.966	1.34	1.09	1.3	1.21	0.902	0.878		0.898	0.611	0.525	0.716	0.57	0.665	0.524	0.261
NCI-H1651	1.02	0.98	0.935	0.667	1.07	1.12	1.11	0.73	0.692	0.79	0.295	0.423	0.48	0.401	0.539	0.545	0.578	0.51	0.497
